Assay results as given in patent publication US20230095276A1, “ESTERS OF A RETINOID AND A TOCOPHEROL OR TERT-BUTYLHYDROQUINONE AND PREPARATIONS THEREOF” (Conagen Inc., priority 2021, published 2023).

Key:
Format in all cases: cell-based
RAR alpha = target: T1, RAR alpha (Homo sapiens, UniProt P10276); test: RAR alpha agonist reporter cell assay (Gal4 DBD receptor hybrid, luciferase); conditions: for Fold Activation: 23 hours, vs DMSO; for agonist activity towards RAR alpha (in words): summary of Table 1
T1 sequence (P10276 183-417 limits assumed): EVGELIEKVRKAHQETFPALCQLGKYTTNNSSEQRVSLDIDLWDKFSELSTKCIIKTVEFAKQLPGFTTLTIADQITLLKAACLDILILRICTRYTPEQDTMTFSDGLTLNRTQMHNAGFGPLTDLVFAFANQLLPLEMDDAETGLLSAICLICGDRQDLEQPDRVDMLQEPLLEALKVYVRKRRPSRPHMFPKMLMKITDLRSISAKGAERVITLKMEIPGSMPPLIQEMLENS
Experimental: (§1) Reporter Cells (Indigo Biosciences, catalog #IB02201, IB02101, IB00821) were used in the assays. The reporter cells expressed a receptor hybrid in which the native N-terminal DNA binding domain (DBD) had been replaced with that of the yeast Gal4 DBD. The reporter gene, firefly luciferase, is functionally linked to the Gal4 upstream activation sequence (UAS). Receptor assays were performed as follows, Steps 1 to 3.
(§2) Step 1: A suspension of Reporter Cells was prepared in Cell Recovery Medium (CRM: containing charcoal-stripped FBS) and 100 μL of the Reporter Cell suspension was dispensed into each of the wells of a white 96-well assay plate. Step 2: Test and reference compound master stocks were prepared as solutions at 1,000× concentration in DMSO relative to the final treatment concentration. This intermediate stock was subsequently diluted directly into INDIGO Biosciences's Compound Screening Medium (CSM; containing charcoal-stripped FBS) to generate ‘2×-concentration’ treatment media. 100 μL of each prepared treatment medium was dispensed into duplicate assay wells pre-dispensed with a 100 μL suspension of Reporter Cells, thereby achieving the desired final treatment concentrations. The concentration of residual DMSO in all assay wells was 0.1% for the test and reference compounds. Assay plates were incubated at 37° C., 5% CO2 and ˜70% humidity for 23 hours. DMSO control was used to determine background activity. Retinoic acid was used with its EC100 concentration to show 100% activity of each receptor. Retinol served as positive control.
(§3) Step 3: Following the incubation period, treatment media were discarded and 100 μL/well of Luciferase Detection Reagent was added per well to determine receptor activity in terms of relative luminescence units (RLUs). Data processing: Fold activation: [Ave RLU Test Cmpd/Ave RLU DMSO].

RAR beta = target: T2, RAR beta (Homo sapiens, UniProt P10826); test: RAR beta agonist reporter cell assay (Gal4 DBD receptor hybrid, luciferase); conditions: for Fold Activation: 23 hours, vs DMSO; for agonist activity towards RAR beta (in words): summary of Table 1
T2 sequence (P10826 183-417 limits assumed): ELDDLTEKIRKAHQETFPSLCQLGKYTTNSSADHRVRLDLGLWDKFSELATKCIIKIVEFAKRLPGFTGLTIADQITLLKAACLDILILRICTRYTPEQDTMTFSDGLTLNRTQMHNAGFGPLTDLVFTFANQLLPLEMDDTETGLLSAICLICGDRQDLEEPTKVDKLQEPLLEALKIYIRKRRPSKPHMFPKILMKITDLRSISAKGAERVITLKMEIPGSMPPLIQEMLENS
Experimental: as §1, §2, §3

RAR gamma = RAR gamma agonist reporter cell assay (Gal4 DBD receptor hybrid, luciferase); conditions: for Fold Activation: 23 hours, vs DMSO; for agonist activity towards RAR gamma (in words): summary of Table 1
Experimental: Reporter Cells (Indigo Biosciences, catalog #IB02201, IB02101, IB00821) were used in the assays. The reporter cells expressed a receptor hybrid in which the native N-terminal DNA binding domain (DBD) had been replaced with that of the yeast Gal4 DBD. The reporter gene, firefly luciferase, is functionally linked to the Gal4 upstream activation sequence (UAS). Receptor assays were performed as follows, Steps 1 to 3. Step 1: A suspension of Reporter Cells was prepared in Cell Recovery Medium (CRM: containing charcoal-stripped FBS) and 100 μL of the Reporter Cell suspension was dispensed into each of the wells of a white 96-well assay plate. Step 2: Test and reference compound master stocks were prepared as solutions at 1,000× concentration in DMSO relative to the final treatment concentration. […] The concentration of residual DMSO in all assay wells was 0.1% for the test and reference compounds. Assay plates were incubated at 37° C., 5% CO2 and ˜70% humidity for 23 hours. DMSO control was used to determine background activity. […] Retinol served as positive control. Step 3: Following the incubation period, treatment media were discarded and 100 μL/well of Luciferase Detection Reagent was added per well to determine receptor activity in terms of relative luminescence units (RLUs). Data processing: Fold activation: [Ave RLU Test Cmpd/Ave RLU DMSO].

CC1=C(/C=C/C(C)=C/C=C/C(C)=C/C(=O)Oc2c(C)c(C)c3c(c2C)CCC(C)(CCCC(C)CCCC(C)CCCC(C)C)O3)C(C)(C)CCC1 (racemic) [(±)α-tocopheryl retinoate]
Fold Activation (RAR alpha; RAR alpha, 0.01 μM): 1.27 fold
Fold Activation (RAR alpha; RAR alpha, 0.1 μM): 9.14 fold
Fold Activation (RAR alpha; RAR alpha, 1 μM): 552 fold
agonist activity towards RAR alpha (in words) (RAR alpha): exhibited agonist activity
Fold Activation (RAR beta; RAR beta, 0.01 μM): 0.882 fold
Fold Activation (RAR beta; RAR beta, 0.1 μM): 6.33 fold
Fold Activation (RAR beta; RAR beta, 1 μM): 149 fold
agonist activity towards RAR beta (in words) (RAR beta): exhibited agonist activity
Fold Activation (RAR gamma; RAR gamma, 0.01 μM): 1.79 fold
Fold Activation (RAR gamma; RAR gamma, 0.1 μM): 23.8 fold
Fold Activation (RAR gamma; RAR gamma, 1 μM): 365 fold
agonist activity towards RAR gamma (in words) (RAR gamma): exhibited agonist activity

CC1=C(/C=C/C(C)=C/C=C/C(C)=C/C(=O)Oc2ccc(O)c(C(C)(C)C)c2)C(C)(C)CCC1 [3-tert-Butyl-4-hydroxyphenyl retinoate, 3-tert-butyl-4-hydroxyphenyl retinoate]
activity compared with retinoic acid (RAR alpha; RAR alpha): comparable activity to retinoic acid
Fold Activation (RAR alpha; RAR alpha, 0.01 μM): 1,573 fold
Fold Activation (RAR alpha; RAR alpha, 0.1 μM): 2,768 fold
Fold Activation (RAR alpha; RAR alpha, 1 μM): 3,414 fold
activity compared with retinol (RAR alpha; RAR alpha, all tested concentrations): higher activity than retinol at all tested concentrations
agonist activity towards RAR alpha (in words) (RAR alpha): exhibited agonist activity
activity compared with retinoic acid (RAR beta; RAR beta): comparable activity to retinoic acid
Fold Activation (RAR beta; RAR beta, 0.01 μM): 232 fold
Fold Activation (RAR beta; RAR beta, 0.1 μM): 287 fold
Fold Activation (RAR beta; RAR beta, 1 μM): 331 fold
activity compared with retinol (RAR beta; RAR beta, all tested concentrations): higher activity than retinol at all tested concentrations
agonist activity towards RAR beta (in words) (RAR beta): exhibited agonist activity
activity compared with retinoic acid (RAR gamma; RAR gamma): comparable activity to retinoic acid
Fold Activation (RAR gamma; RAR gamma, 0.01 μM): 541 fold
Fold Activation (RAR gamma; RAR gamma, 0.1 μM): 1,010 fold
Fold Activation (RAR gamma; RAR gamma, 1 μM): 701 fold
activity compared with retinol (RAR gamma; RAR gamma, all tested concentrations): higher activity than retinol at all tested concentrations
agonist activity towards RAR gamma (in words) (RAR gamma): exhibited agonist activity

CC1=C(/C=C/C(C)=C/C=C/C(C)=C/C(=O)Oc2cc(C)c3c(c2)CC[C@@](C)(CCC[C@H](C)CCC[C@H](C)CCCC(C)C)O3)C(C)(C)CCC1 [(+)δ-Tocopheroyl retinoate, (+)δ-tocopheroyl retinoate]
Fold Activation (RAR alpha; RAR alpha, 0.01 μM): 0.620 fold
Fold Activation (RAR alpha; RAR alpha, 0.1 μM): 5.25 fold
Fold Activation (RAR alpha; RAR alpha, 1 μM): 251 fold
agonist activity towards RAR alpha (in words) (RAR alpha): exhibited agonist activity
Fold Activation (RAR beta; RAR beta, 0.01 μM): 1.57 fold
Fold Activation (RAR beta; RAR beta, 0.1 μM): 3.96 fold
Fold Activation (RAR beta; RAR beta, 1 μM): 53.4 fold
agonist activity towards RAR beta (in words) (RAR beta): exhibited agonist activity
Fold Activation (RAR gamma; RAR gamma, 0.01 μM): 1.10 fold
Fold Activation (RAR gamma; RAR gamma, 0.1 μM): 8.45 fold
Fold Activation (RAR gamma; RAR gamma, 1 μM): 315 fold
agonist activity towards RAR gamma (in words) (RAR gamma): exhibited agonist activity

CC1=C(/C=C/C(C)=C/C=C/C(C)=C/C(=O)O)C(C)(C)CCC1 [Retinoic acid, reference compound]
Fold Activation (RAR gamma; RAR gamma, 0.1 μM): 706 fold

CC1=C(/C=C/C(C)=C/C=C/C(C)=C/CO)C(C)(C)CCC1 [Retinol, reference compound]
Fold Activation (RAR alpha; RAR alpha, 0.01 μM): 1.77 fold
Fold Activation (RAR alpha; RAR alpha, 0.1 μM): 6.35 fold
Fold Activation (RAR alpha; RAR alpha, 1 μM): 518 fold
Fold Activation (RAR beta; RAR beta, 0.01 μM): 1.63 fold
Fold Activation (RAR beta; RAR beta, 0.1 μM): 4.91 fold
Fold Activation (RAR beta; RAR beta, 1 μM): 127 fold
Fold Activation (RAR gamma; RAR gamma, 0.01 μM): 2.28 fold
Fold Activation (RAR gamma; RAR gamma, 0.1 μM): 18.5 fold
Fold Activation (RAR gamma; RAR gamma, 1 μM): 368 fold
